Experimental data from patent US7642251B2, “Compounds for the treatment of hepatitis C” (Bristol-Myers Squibb Company, priority 2007, dated 2010).
Like-named read-outs stand apart in the source and are kept apart here.

What was measured:
HCV NS5B = molecular target: T1, HCV NS5B (Hepatitis C virus genotype 1b, UniProt Q9WMX2); experiment: Modified HCV NS5B RdRp enzyme assay (preincubation protocol); assay type: biochemical
T1 construct: The cDNA encoding the NS5B protein of HCV, genotype 1b; made in house; host or cells: E. coli BL21(DE3)
T1 sequence (Q9WMX2 2420-2992): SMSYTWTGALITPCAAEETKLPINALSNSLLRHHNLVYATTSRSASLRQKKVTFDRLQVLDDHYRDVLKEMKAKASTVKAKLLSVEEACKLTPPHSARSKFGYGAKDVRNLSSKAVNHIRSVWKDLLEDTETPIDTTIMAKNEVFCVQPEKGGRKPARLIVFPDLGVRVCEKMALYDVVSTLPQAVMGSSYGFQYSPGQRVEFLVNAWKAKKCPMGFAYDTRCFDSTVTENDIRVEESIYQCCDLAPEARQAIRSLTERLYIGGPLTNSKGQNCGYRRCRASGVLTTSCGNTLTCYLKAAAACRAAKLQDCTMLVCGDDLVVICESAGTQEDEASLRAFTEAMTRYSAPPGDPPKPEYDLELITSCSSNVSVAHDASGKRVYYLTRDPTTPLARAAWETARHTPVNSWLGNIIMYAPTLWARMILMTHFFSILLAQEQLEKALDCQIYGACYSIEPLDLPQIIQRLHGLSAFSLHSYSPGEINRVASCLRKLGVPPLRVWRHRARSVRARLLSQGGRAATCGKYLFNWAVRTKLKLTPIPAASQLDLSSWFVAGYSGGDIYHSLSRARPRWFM
Procedure: HCV NS5B RdRp cloning, expression, and purification. The cDNA encoding the NS5B protein of HCV, genotype 1b, was cloned into the pET21a expression vector. The protein was expressed with an 18 amino acid C-terminal truncation to enhance the solubility. The E. coli competent cell line BL21(DE3) was used for expression of the protein. Cultures were grown at 37° C. for ˜4 hours until the cultures reached an optical density of 2.0 at 600 nm. The cultures were cooled to 20° C. and induced with 1 mM IPTG. Fresh ampicillin was added to a final concentration of 50 μg/ml and the cells were grown overnight at 20° C.
Cell pellets (3 L) were lysed for purification to yield 15-24 mgs of purified NS5B. The lysis buffer consisted of 20 mM Tris-HCl, pH 7.4, 500 mM NaCl, 0.5% triton X-100, 1 mM DTT, 1 mM EDTA, 20% glycerol, 0.5 mg/ml lysozyme, 10 mM MgCl2, 15 ug/ml deoxyribonuclease I, and Complete™ protease inhibitor tablets (Roche). After addition of the lysis buffer, frozen cell pellets were resuspended using a tissue homogenizer. To reduce the viscosity of the sample, aliquots of the lysate were sonicated on ice using a microtip attached to a Branson sonicator. The sonicated lysate was centrifuged at 100,000×g for 1 hr at 4° C. and filtered through a 0.2 μm filter unit (Corning).
The protein was purified using three sequential chromatography steps: Heparin sepharose CL-6B, polyU sepharose 4B, and Hitrap SP sepharose (Pharmacia). The chromatography buffers were identical to the lysis buffer but contained no lysozyme, deoxyribonuclease I, MgCl2 or protease inhibitor and the NaCl concentration of the buffer was adjusted according to the requirements for charging the protein onto the column. Each column was eluted with a NaCl gradient which varied in length from 5-50 column volumes depending on the column type. After the final chromatography step, the resulting purity of the enzyme is >90% based on SDS-PAGE analysis. The enzyme was aliquoted and stored at −80° C.
Standard HCV NS5B RdRp enzyme assay. HCV RdRp genotype 1b assays were run in a final volume of 60 μl in 96 well plates (Costar 3912). The assay buffer is composed of 20 mM Hepes, pH 7.5, 2.5 mM KCl, 2.5 mM MgCl2, 1 mM DTT, 1.6 U RNAse inhibitor (Promega N2515), 0.1 mg/ml BSA (Promega R3961), and 2% glycerol. All compounds were serially diluted (3-fold) in DMSO and diluted further in water such that the final concentration of DMSO in the assay was 2%. HCV RdRp genotype 1b enzyme was used at a final concentration of 28 nM. A polyA template was used at 6 nM, and a biotinylated oligo-dT12 primer was used at 180 nM final concentration. Template was obtained commercially (Amersham 27-4110). Biotinylated primer was prepared by Sigma Genosys. 3H-UTP was used at 0.6 μCi (0.29 μM total UTP). Reactions were initiated by the addition of enzyme, incubated at 30° C. for 60 min, and stopped by adding 25 μl of 50 mM EDTA containing SPA beads (4 μg/μl, Amersham RPNQ 0007). Plates were read on a Packard Top Count NXT after >1 hr incubation at room temperature.
Modified HCV NS5B RdRp enzyme assay. A modified enzyme assay was performed essentially as described for the standard enzyme assay except for the following: The biotinylated oligo dT12 primer was precaptured on streptavidin-coated SPA beads by mixing primer and beads in assay buffer and incubating at room temperature for one hour. Unbound primer was removed after centrifugation. The primer-bound beads were resuspended in 20 mM Hepes buffer, pH 7.5 and used in the assay at final concentrations of 20 nM primer and 0.67 μg/μl beads. Order of addition in the assay: enzyme (14 nM) was added to diluted compound followed by the addition of a mixture of template (0.2 nM), 3H-UTP (0.6 μCi, 0.29 μM), and primer-bound beads, to initiate the reaction; concentrations given are final. Reactions were allowed to proceed for 4 hours at 30° C.
IC50 values for compounds were determined using seven different [I]. […]

HCV replicon cells = experiment: HCV replicon FRET assay; assay type: cell-based; details: Hepatitis C virus
Description: FRET Assay Preparation. To perform the HCV FRET screening assay, 96-well cell culture plates were used. The FRET peptide (Anaspec, Inc.) (Taliani et al., Anal. Biochem. 1996, 240, 60-67) contains a fluorescence donor, EDANS, near one end of the peptide and an acceptor, DABCYL, near the other end. The fluorescence of the peptide is quenched by […] resonance energy transfer (RET) between the donor and the acceptor, but as the NS3 protease cleaves the peptide the products are released from RET quenching and the fluorescence of the donor becomes apparent. The assay reagent was made as follows: 5× cell Luciferase cell culture lysis reagent from Promega (#E153A) diluted to 1× with dH2O, NaCl added to 150 mM final, the FRET peptide diluted to 20 μM final from a 2 mM stock.
To prepare plates, HCV replicon cells, with or without a Renilla luciferase reporter gene, were trypsinized and placed into each well of a 96-well plate with titrated test compounds added in columns 3 through 12; columns 1 and 2 contained a control compound (HCV protease inhibitor), and the bottom row contained cells without compound. The plates were then placed in a CO2 incubator at 37° C.
Assays. Subsequent to addition of the test compounds described above (FRET Assay Preparation), at various times the plate was removed and Alamar blue solution (Trek Diagnostics, #00-100) was added per well as a measure of cellular toxicity. After reading in a Cytoflour 4000 instrument (PE Biosystems), plates were rinsed with PBS and then used for FRET assay by the addition of 30 ul of the FRET peptide assay reagent described above (FRET Assay Preparation) per well. The plate was then placed into the Cytoflour 4000 instrument which had been set to 340 excite/490 emission, automatic mode for 20 cycles and the plate read in a kinetic mode. Typically, the signal to noise using an endpoint analysis after the reads was at least three-fold. Alternatively, after Alamar blue reading, plates were rinsed with PBS, 50 ul of DMEM (high glucose) without phenol red was added and plates were then used for luciferase assay using the Promega Dual-Glo Luciferase Assay System.
Compound analysis was determined by quantification of the relative HCV replicon inhibition and the relative cytotoxicity values. To calculate cytoxicity values, the average Alamar Blue fluorescence signals from the control wells were set as 100% non-toxic. The individual signals in each of the compound test wells were then divided by the average control signal and multiplied by 100% to determine […]. To calculate the HCV replicon inhibition values, an average background value was obtained from the two wells containing the highest amount of HCV protease inhibitor at the end of the assay period. These numbers were similar to those obtained from naïve Huh-7 cells.
The background numbers were then subtracted from the average signal obtained from the control wells and this number was used as 100% activity. The individual signals in each of the compound test wells were then divided by the averaged control values after background subtraction and multiplied by 100% to determine percent activity. EC50 values for a protease inhibitor titration were calculated as the concentration which caused a 50% reduction in FRET or luciferase activity. The two numbers generated for the compound plate, percent cytoxicity and percent activity were used to determine compounds of interest for further analysis.

[1] = preincubation protocol, read-out: IC50

Row | Structure (SMILES) | IC50 (HCV NS5B; [1]) [nM] | EC50 (HCV replicon cells; FRET assay, read-out: EC50) [nM] | IC50 (HCV NS5B) [nM] | EC50 (HCV replicon cells) [nM]
1 | COc1ccc2c(c1)C=C(c1cccc(OCCN3CCOCC3)c1)Cn1c-2c(C2CCCCC2)c2ccc(C(=O)NS(=O)(=O)C(C)C)cc21 | 4.58 to 500 | > 500 |  | 
2 | COc1ccc2c(c1)CC(c1cccc(OCCN(C)C)c1)Cn1c-2c(C2CCCCC2)c2ccc(C(=O)NS(=O)(=O)C(C)C)cc21 (centres unmarked) | 4.58 to 500 | 4.58 to 500 |  | 
3 | COc1ccc2c(c1)CC(c1cccc(OCCN3CCOCC3)c1)Cn1c-2c(C2CCCCC2)c2ccc(C(=O)NS(=O)(=O)C(C)C)cc21 (centres unmarked) | 4.58 to 500 | 4.58 to 500 |  | 
4 | COc1ccc2c(c1)C=C(c1ccccc1C(F)(F)F)Cn1c-2c(C2CCCCC2)c2ccc(C(=O)NS(=O)(=O)C(C)C)cc21 | 4.58 to 500 | > 500 |  | 
5 | COc1ccc2c(c1)C=C(c1ccccc1S(=O)(=O)N1CCCC1)Cn1c-2c(C2CCCCC2)c2ccc(C(=O)NS(=O)(=O)C(C)C)cc21 | 4.58 to 500 | > 500 |  | 
6 | COc1ccc2c(c1)C=C(c1ccccc1OC(F)(F)C(F)(F)F)Cn1c-2c(C2CCCCC2)c2ccc(C(=O)NS(=O)(=O)C(C)C)cc21 | 4.58 to 500 | > 500 |  | 
7 | COc1ccc2c(c1)C=C(c1c(F)cccc1C(F)(F)F)Cn1c-2c(C2CCCCC2)c2ccc(C(=O)NS(=O)(=O)C(C)C)cc21 | 4.58 to 500 | 4.58 to 500 |  | 
8 | COc1ccc2c(c1)C=C(c1cccc3c1OCCO3)Cn1c-2c(C2CCCCC2)c2ccc(C(=O)NS(=O)(=O)C(C)C)cc21 | 4.58 to 500 | > 500 |  | 
9 | COc1ccc2c(c1)C=C(c1cccc3c1OC(F)(F)O3)Cn1c-2c(C2CCCCC2)c2ccc(C(=O)O)cc21 | 4.58 to 500 | > 500 |  | 
10 | COc1ccc2c(c1)C=C(c1cc([N+](=O)[O-])c3[nH]ccc3c1)Cn1c-2c(C2CCCCC2)c2ccc(C(=O)O)cc21 | 4.58 to 500 | > 500 |  | 
11 | COc1ccc2c(c1)C=C(c1cnc(OC)c3[nH]ccc13)Cn1c-2c(C2CCCCC2)c2ccc(C(=O)O)cc21 | 4.58 to 500 | 4.58 to 500 |  | 
12 | COc1ccc2c(c1)C=C(c1ccc3sc(C)nc3c1)Cn1c-2c(C2CCCCC2)c2ccc(C(=O)O)cc21 | 4.58 to 500 | > 500 |  | 
13 | COc1ccc2c(c1)C=C(c1ccccc1C(=O)N1C3CCC1CN(C)C3)Cn1c-2c(C2CCCCC2)c2ccc(C(=O)OC(C)(C)C)cc21 |  |  | > 500 | > 500
14 | COc1ccc2c(c1)C=C(c1ccccc1C(=O)N1C3CCC1CN(C)C3)Cn1c-2c(C2CCCCC2)c2ccc(C(=O)O)cc21 |  |  | 4.58 to 500 | 4.58 to 500
15 | COc1ccc2c(c1)C=C(c1ccccc1C(=O)N1C3CCC1CN(C)C3)Cn1c-2c(C2CCCCC2)c2ccc(C(=O)NS(=O)(=O)C(C)C)cc21 |  |  | 4.58 to 500 | 4.58 to 500
16 | COc1ccc2c(c1)C=C(c1ccccc1C(=O)N1CCOCC1)Cn1c-2c(C2CCCCC2)c2ccc(C(=O)OC(C)(C)C)cc21 | > 500 | > 500 |  | 
